Reference: patent US20200079758A1, “[4-(PHENYLSULFONYL)PIPERAZIN-1-YL](1H-1,2,3-TRIAZOL-4-YL)METHANONES” (priority 2016, published 2020)

molecular target: T1, recombinant human AKR1C3 (Homo sapiens, UniProt P42330); assay: AKR1C3-inhibitory activity assay (generation of Coumberol from Coumberone); type: biochemical; conditions: Coumberone 0.3 μM, NADPH 10 μM, 22° C., typically 90 min, average or median values
T1 construct: GST (cleaved yes); made in house; host or cells: E. coli
T1 sequence (P42330 1-323): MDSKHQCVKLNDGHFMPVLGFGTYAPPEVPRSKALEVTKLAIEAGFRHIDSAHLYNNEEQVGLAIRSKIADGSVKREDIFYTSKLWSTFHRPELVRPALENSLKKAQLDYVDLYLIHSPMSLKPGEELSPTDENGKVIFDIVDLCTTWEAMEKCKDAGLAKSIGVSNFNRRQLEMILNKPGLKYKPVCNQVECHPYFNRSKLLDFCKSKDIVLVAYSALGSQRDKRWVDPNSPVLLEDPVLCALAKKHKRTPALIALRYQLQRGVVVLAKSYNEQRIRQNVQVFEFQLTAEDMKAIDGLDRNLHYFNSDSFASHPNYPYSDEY
Method in brief: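 Recombinant human AKR1C3 (E. coli GST fusion, GST removed; ~1 nM) preincubated 15 min with compound, then NADPH 10 μM and Coumberone 0.3 μM (final), 22 °C, typically 90 min, in 50 mM K-phosphate pH 7. Stopped with EM-1404 (1 μM final); Coumberol fluorescence read at 520 nm (ex 380 nm), normalized to no-inhibitor and no-enzyme controls.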

IC50 [nM]	Structure (SMILES)
2	C[C@@H]1CN(C(=O)c2cnn[nH]2)[C@@H](C)CN1S(=O)(=O)c1cc(Cl)ccc1C(F)(F)F [Example 89, [(2S,5R)-4-{[5-chloro-2-(trifluoromethyl)phenyl]sulfonyl}-2,5-dimethylpiperazin-1-yl](1H-1,2,3-triazol-5-yl)methanone]
5	C[C@@H]1CN(C(=O)c2cnn[nH]2)[C@@H](C)CN1S(=O)(=O)c1cc(C(F)(F)F)cc(C(F)(F)F)c1 [Example 90, [(2S,5R)-4-{[3,5-bis(trifluoromethyl)phenyl]sulfonyl}-2,5-dimethylpiperazin-1-yl](1H-1,2,3-triazol-5-yl)methanone]
1	C[C@@H]1CN(C(=O)c2cnn[nH]2)[C@@H](C)CN1S(=O)(=O)c1ccc(F)c(Cl)c1 [Example 91, {(2S,5R)-4-[(3-chloro-4-fluorophenyl)sulfonyl]-2,5-dimethylpiperazin-1-yl}(1H-1,2,3-triazol-5-yl)methanone]
1	Cc1cc(C)cc(S(=O)(=O)N2C[C@H](C)N(C(=O)c3cnn[nH]3)C[C@H]2C)c1 [Example 92, {(2S,5R)-4-[(3,5-dimethylphenyl)sulfonyl]-2,5-dimethylpiperazin-1-yl}(1H-1,2,3-triazol-5-yl)methanone]
30	C[C@@H]1CN(S(=O)(=O)c2ccc(Br)cc2)C[C@H](C)N1C(=O)c1cnn[nH]1 [Example 93, {(2R,6S)-4-[(4-bromophenyl)sulfonyl]-2,6-dimethylpiperazin-1-yl}(1H-1,2,3-triazol-5-yl)methanone]
20	C[C@@H]1CN(S(=O)(=O)c2ccc(Cl)cc2)C[C@H](C)N1C(=O)c1cnn[nH]1 [Example 95, {(2R,6S)-4-[(4-chlorophenyl)sulfonyl]-2,6-dimethylpiperazin-1-yl}(1H-1,2,3-triazol-5-yl)methanone]
2	C[C@@H]1CN(S(=O)(=O)c2cccc3ccccc23)C[C@H](C)N1C(=O)c1cnn[nH]1 [Example 96, [(2R,6S)-2,6-dimethyl-4-(naphthalen-1-ylsulfonyl)piperazin-1-yl](1H-1,2,3-triazol-5-yl)methanone]
151	COc1ccc(S(=O)(=O)N2C[C@@H](C)N(C(=O)c3cnn[nH]3)[C@@H](C)C2)cc1 [Example 97, {(2R,6S)-4-[(4-methoxyphenyl)sulfonyl]-2,6-dimethylpiperazin-1-yl}(1H-1,2,3-triazol-5-yl)methanone]
56	C[C@@H]1CN(S(=O)(=O)c2cc(C(F)(F)F)cc(C(F)(F)F)c2)C[C@H](C)N1C(=O)c1cnn[nH]1 [Example 98, [(2R,6S)-4-{[3,5-bis(trifluoromethyl)phenyl]sulfonyl}-2,6-dimethylpiperazin-1-yl](1H-1,2,3-triazol-5-yl)methanone]
3	Cc1ccc(C)c(S(=O)(=O)N2C[C@@H](C)N(C(=O)c3cnn[nH]3)[C@@H](C)C2)c1 [Example 99, {(2R,6S)-4-[(2,5-dimethylphenyl)sulfonyl]-2,6-dimethylpiperazin-1-yl}(1H-1,2,3-triazol-5-yl)methanone]
20	C[C@@H]1CN(S(=O)(=O)c2ccc(F)c(Cl)c2)C[C@H](C)N1C(=O)c1cnn[nH]1 [Example 100, {(2R,6S)-4-[(3-chloro-4-fluorophenyl)sulfonyl]-2,6-dimethylpiperazin-1-yl}(1H-1,2,3-triazol-5-yl)methanone]

Second part, the compound before the results:

Structure (SMILES)	IC50 [nM]
Cc1ccccc1S(=O)(=O)N1C[C@H](C)N(C(=O)c2cnn[nH]2)C[C@H]1C [Example 69, {(2S,5R)-2,5-dimethyl-4-[(2-methylphenyl)sulfonyl]piperazin-1-yl}(1H-1,2,3-triazol-5-yl)methanone]	1
Cc1ccc(C)c(S(=O)(=O)N2C[C@H](C)N(C(=O)c3cnn[nH]3)C[C@H]2C)c1 [Example 70, {(2S,5R)-4-[(2,5-dimethylphenyl)sulfonyl]-2,5-dimethylpiperazin-1-yl}(1H-1,2,3-triazol-5-yl)methanone]	1
C[C@@H]1CN(C(=O)c2cnn[nH]2)[C@@H](C)CN1S(=O)(=O)c1ccc(OC(F)(F)F)cc1 [Example 71, [(2S,5R)-2,5-dimethyl-4-{[4-(trifluoromethoxy)phenyl]sulfonyl}piperazin-1-yl](1H-1,2,3-triazol-5-yl)methanone]	22
C[C@@H]1CN(C(=O)c2cnn[nH]2)[C@@H](C)CN1S(=O)(=O)c1ccccc1OC(F)(F)F [Example 72, [(2S,5R)-2,5-dimethyl-4-{[2-(trifluoromethoxy)phenyl]sulfonyl}piperazin-1-yl](1H-1,2,3-triazol-5-yl)methanone]	2
C[C@@H]1CN(C(=O)c2cnn[nH]2)[C@@H](C)CN1S(=O)(=O)c1ccccc1Cl [Example 73, {(2S,5R)-4-[(2-chlorophenyl)sulfonyl]-2,5-dimethylpiperazin-1-yl}(1H-1,2,3-triazol-5-yl)methanone]	1
C[C@@H]1CN(C(=O)c2cnn[nH]2)[C@@H](C)CN1S(=O)(=O)c1cccc(Cl)c1 [Example 74, {(2S,5R)-4-[(3-chlorophenyl)sulfonyl]-2,5-dimethylpiperazin-1-yl}(1H-1,2,3-triazol-5-yl)methanone]	1
Cc1cccc(S(=O)(=O)N2C[C@H](C)N(C(=O)c3cnn[nH]3)C[C@H]2C)c1 [Example 75, {(2S,5R)-2,5-dimethyl-4-[(3-methylphenyl)sulfonyl]piperazin-1-yl}(1H-1,2,3-triazol-5-yl)methanone]	1
C[C@@H]1CN(C(=O)c2cnn[nH]2)[C@@H](C)CN1S(=O)(=O)c1ccccc1Br [Example 76, {(2S,5R)-4-[(2-bromophenyl)sulfonyl]-2,5-dimethylpiperazin-1-yl}(1H-1,2,3-triazol-5-yl)methanone]	1
Cc1c(Cl)cccc1S(=O)(=O)N1C[C@H](C)N(C(=O)c2cnn[nH]2)C[C@H]1C [Example 77, {(2S,5R)-4-[(3-chloro-2-methylphenyl)sulfonyl]-2,5-dimethylpiperazin-1-yl}(1H-1,2,3-triazol-5-yl)methanone]	2
C[C@@H]1CN(C(=O)c2cnn[nH]2)[C@@H](C)CN1S(=O)(=O)c1cccc(Br)c1 [Example 78, {(2S,5R)-4-[(3-bromophenyl)sulfonyl]-2,5-dimethylpiperazin-1-yl}(1H-1,2,3-triazol-5-yl)methanone]	1
C[C@@H]1CN(C(=O)c2cnn[nH]2)[C@@H](C)CN1S(=O)(=O)c1c(F)cccc1F [Example 79, {(2S,5R)-4-[(2,6-difluorophenyl)sulfonyl]-2,5-dimethylpiperazin-1-yl}(1H-1,2,3-triazol-5-yl)methanone]	2
CC(=O)Nc1cccc(S(=O)(=O)N2C[C@H](C)N(C(=O)c3cnn[nH]3)C[C@H]2C)c1 [Example 80, N-(3-{[(2R,5S)-2,5-dimethyl-4-(1H-1,2,3-triazol-5-ylcarbonyl)piperazin-1-yl]sulfonyl}phenyl)acetamide]	104
C[C@@H]1CN(C(=O)c2cnn[nH]2)[C@@H](C)CN1S(=O)(=O)c1cccc(S(C)(=O)=O)c1 [Example 81, [(2S,5R)-2,5-dimethyl-4-{[3-(methylsulfonyl)phenyl]sulfonyl}piperazin-1-yl](1H-1,2,3-triazol-5-yl)methanone]	32
C[C@@H]1CN(C(=O)c2cnn[nH]2)[C@@H](C)CN1S(=O)(=O)c1ccc(F)c(F)c1 [Example 82, {(2S,5R)-4-[(3,4-difluorophenyl)sulfonyl]-2,5-dimethylpiperazin-1-yl}(1H-1,2,3-triazol-5-yl)methanone]	2
C[C@@H]1CN(C(=O)c2cnn[nH]2)[C@@H](C)CN1S(=O)(=O)c1cccc(C#N)c1 [Example 83, 3-{[(2R,5S)-2,5-dimethyl-4-(1H-1,2,3-triazol-5-ylcarbonyl)piperazin-1-yl]sulfonyl}benzonitrile]	3
C[C@@H]1CN(C(=O)c2cnn[nH]2)[C@@H](C)CN1S(=O)(=O)c1ccccc1S(C)(=O)=O [Example 84, [(2S,5R)-2,5-dimethyl-4-{[2-(methylsulfonyl)phenyl]sulfonyl}piperazin-1-yl](1H-1,2,3-triazol-5-yl)methanone]	37
C[C@@H]1CN(C(=O)c2cnn[nH]2)[C@@H](C)CN1S(=O)(=O)c1cccc(OC(F)(F)F)c1 [Example 85, [(2S,5R)-2,5-dimethyl-4-{[3-(trifluoromethoxy)phenyl]sulfonyl}piperazin-1-yl](1H-1,2,3-triazol-5-yl)methanone]	2
C[C@@H]1CN(C(=O)c2cnn[nH]2)[C@@H](C)CN1S(=O)(=O)c1ccccc1-c1ccccc1 [Example 86, [(2S,5R)-4-(biphenyl-2-ylsulfonyl)-2,5-dimethylpiperazin-1-yl](1H-1,2,3-triazol-5-yl)methanone]	32
COc1cccc(S(=O)(=O)N2C[C@H](C)N(C(=O)c3cnn[nH]3)C[C@H]2C)c1 [Example 87, {(2S,5R)-4-[(3-methoxyphenyl)sulfonyl]-2,5-dimethylpiperazin-1-yl}(1H-1,2,3-triazol-5-yl)methanone]	2
C[C@@H]1CN(C(=O)c2cnn[nH]2)[C@@H](C)CN1S(=O)(=O)Cc1c(F)cccc1F [Example 88, {(2S,5R)-4-[(2,6-difluorobenzyl)sulfonyl]-2,5-dimethylpiperazin-1-yl}(1H-1,2,3-triazol-5-yl)methanone]	79
